We go through 13 molecules from patent publication US9771333B2, “Quinazoline derivatives as TAM family kinase inhibitors” (SIGNALCHEM LIFESCIENCES CORP., priority 2013, dated 2017).

What all share (format): biochemical
One test deals with T1, human Tyro3 (Homo sapiens, UniProt Q06418).
T1 construct: GST (N); made in house; host or cells: Sf9 insect cells (baculovirus)
T1 sequence (Q06418 455-890 limits assumed): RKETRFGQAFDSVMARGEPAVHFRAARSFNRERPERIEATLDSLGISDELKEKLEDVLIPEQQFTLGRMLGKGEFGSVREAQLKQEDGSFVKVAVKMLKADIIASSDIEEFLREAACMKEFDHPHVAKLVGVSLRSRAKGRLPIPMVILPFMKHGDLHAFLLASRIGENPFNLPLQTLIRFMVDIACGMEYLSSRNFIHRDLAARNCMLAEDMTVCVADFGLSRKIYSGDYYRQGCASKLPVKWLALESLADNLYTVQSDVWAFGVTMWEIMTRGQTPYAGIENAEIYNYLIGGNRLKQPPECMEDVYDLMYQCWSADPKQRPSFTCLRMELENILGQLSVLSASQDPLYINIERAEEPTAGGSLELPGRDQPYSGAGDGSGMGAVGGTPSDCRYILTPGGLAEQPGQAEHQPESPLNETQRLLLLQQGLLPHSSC
As to the kind of experiment: Kinase enzymatic activity assay (33P-radiolabeled phosphate transfer), Tyro3. The note with it: recombinant human Tyro3 (455-end), poly(4:1 glu:tyr) substrate, 30 minutes. The text has this: (§1) The identification of compounds of the invention as Tyro3, Axl or Mer inhibitors was readily accomplished using the recombinant human Tyro3, Axl and Mer proteins and employing the ^33P-radiolabeled phosphate transfer assay for which the procedure is known to someone skilled in the art or as described in Example 9.
(§2) Recombinant human Tyro3 (455-end, the gene accession number NM_006293), human Axl (473-end, the gene accession number NM_021913) and human Mer (578-872, the gene accession number NM_006343) were independently expressed by baculovirus in Sf9 insect cells using an N-terminal GST tag. The recombinant proteins were stored at −70° C. in a medium containing 50 mM Tris-HCl, pH 7.5, 150 mM NaCl, 10 mM glutathione, 0.1 mM EDTA, 0.25 mM DTT, 0.1 mM PMSF and 25% glycerol. The recombinant proteins were aliquoted into smaller quantities after centrifugation to avoid repeated handling and multiple freeze/thaw cycles for the most favorable performance.
(§3) Kinase Assay Buffer: This buffer solution consisted of the following components: 25 mM MOPS, pH 7.2, 12.5 mM β-glycerol-phosphate, 25 mM MgCl2, 5 mM EGTA, 2 mM EDTA and DTT 0.25 mM which was added prior to use.
(§4) Kinase Dilution Buffer: Kinase Assay Buffer was diluted at a 1:4 ratio (5× dilution) with distilled water.
(§5) [^33P]-ATP assay cocktail: In a designated radioactive working area, a 250 μM [^33P]-ATP assay cocktail was prepared by the addition of the following components: 150 μL of 10 mM ATP stock solution, 100 μL [^33P]-ATP (1 mci/100 μL), and 5.75 mL of kinase assay buffer. This solution was stored in 1 mL aliquots at −20° C.
(§6) ATP stock solution (10 mM): The ATP stock solution was prepared by dissolving 55 mg of ATP in 10 mL of kinase assay buffer. It was stored in 200 μL aliquots at −20° C.
(§7) Active Kinase Stock Solution: The active recombinant kinase protein (0.1 μg/μL) was diluted with Kinase Dilution Buffer and the activity was assayed using a serial dilution method. The specific activity is expressed in nmoL/min/mg.
(§8) Substrates: poly(4:1 glu:tyr) is the substrate used for each kinase Tyro3, Axl and Mer: The peptide substrate was dissolved in water to give the final concentration of 1 mg/mL.
(§9) Test compound solution: Test compound was dissolved in DMSO to obtain a 10 mM solution. The assay solution was prepared by adding 5 μL of this solution to […] of 10% DMSO/water to obtain the final concentration of 50 μM.
(§10) The enzymatic activity of all three kinases was determined as follows. Using a 96-well plate, the wells were divided into three categories: Blank wells, […] and Test wells. In Test wells, 5 μL of the test compound solution and 5 μL of the substrate solution were added. In Control wells, 5 μL of 10% DMSO/water and 5 μL of the substrate solution were added. In Blank wells, 10 μL of 10% DMSO/water was added. To each well was added 10 μL of Active Kinase Stock Solution to make up the volume in each well to 20 μL. All test samples, controls and blanks were run in duplicate. The reaction was initiated by the addition of 5 μL of [^33P]-ATP assay cocktail, bringing the final volume up to 25 μL in every well. The mixture was incubated at room temperature for 30 minutes. The reaction was terminated by transferring 10 μL of the reaction mixture into a Millipore MultiScreen filter plate (cat. number MSPHN6B50). The filter plate was washed in a 1% phosphoric acid solution with constant gentle shaking for 15 minutes and this step was repeated once. After the plate was dried in air, scintillation fluid was added to each well and the radioactivity in each well in CPM was counted by a Microbeta TriLux. The corrected CPM in each test well was determined by subtracting the average value of Blank well values. Percentage of inhibition of the kinase enzymatic activity by the test compound was determined using the following formula: […]
(§11) The IC50 values were determined in a similar way following a serial dilution of the test compound. […]

The target in another test is T2, human Axl (Homo sapiens, UniProt P30530).
T2 construct: GST (N); made in house; host or cells: Sf9 insect cells (baculovirus)
T2 sequence (P30530 473-894 limits assumed): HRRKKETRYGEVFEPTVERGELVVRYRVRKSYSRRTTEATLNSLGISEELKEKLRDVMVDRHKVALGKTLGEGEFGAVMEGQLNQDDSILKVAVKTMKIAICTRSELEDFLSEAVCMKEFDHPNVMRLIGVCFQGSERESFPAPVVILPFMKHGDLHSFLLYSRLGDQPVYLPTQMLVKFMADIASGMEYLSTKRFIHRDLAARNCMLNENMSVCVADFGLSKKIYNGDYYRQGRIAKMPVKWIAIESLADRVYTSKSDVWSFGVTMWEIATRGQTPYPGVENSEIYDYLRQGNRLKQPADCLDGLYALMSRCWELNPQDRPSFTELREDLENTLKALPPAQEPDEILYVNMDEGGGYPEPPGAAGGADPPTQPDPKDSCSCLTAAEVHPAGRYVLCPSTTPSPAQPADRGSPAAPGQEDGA
As to the kind of experiment: Kinase enzymatic activity assay (33P-radiolabeled phosphate transfer), Axl. Conditions: recombinant human Axl (473-end), poly(4:1 glu:tyr) substrate, 30 minutes.
Excerpt: as §1, §2, §3, §4, §5, §6, §7, §8, §9, §10, §11

A further test concerns the target T3, human Mer (Homo sapiens, UniProt Q12866).
T3 construct: GST (N); made in house; host or cells: Sf9 insect cells (baculovirus)
T3 sequence (Q12866 578-872): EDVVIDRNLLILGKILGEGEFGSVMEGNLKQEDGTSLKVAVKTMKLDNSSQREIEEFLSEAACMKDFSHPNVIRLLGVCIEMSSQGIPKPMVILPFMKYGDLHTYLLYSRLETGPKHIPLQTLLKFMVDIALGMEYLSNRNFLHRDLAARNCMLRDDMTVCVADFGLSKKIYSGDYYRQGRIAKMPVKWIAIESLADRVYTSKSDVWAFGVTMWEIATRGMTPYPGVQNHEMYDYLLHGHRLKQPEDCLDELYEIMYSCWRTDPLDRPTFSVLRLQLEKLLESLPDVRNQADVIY
Description: Kinase enzymatic activity assay (33P-radiolabeled phosphate transfer), Mer. Conditions: recombinant human Mer (578-872), poly(4:1 glu:tyr) substrate, 30 minutes.
Excerpt: as §1, §2, §3, §4, §5, §6, §7, §8, §9, §10, §11

Broadly, the IC50 is the concentration that inhibits the measured activity by half. Take `COC(=O)Cc1cccc(Oc2ncnc3cc(OCCN4CCN(C)CC4)cc(OC4CCOCC4)c23)c1` [Example 2.31, methyl 2-(3-((7-(2-(4-methylpiperazin-1-yl)ethoxy)-5-((tetrahydro-2H-pyran-4-yl)oxy)quinazolin-4-yl)oxy)phenyl)acetate]: the values for the IC50 at human Tyro3, on human Axl and on human Mer were 0.5 to 1 µM, 1 to 10 µM and over 10 µM, respectively.
The matching figures for `CN1CCN(CCOc2cc(OC3CCOCC3)c3c(Oc4cccc(C(=O)NCc5ccccc5)c4)ncnc3c2)CC1` [Example 2.32, N-benzyl-3-((7-(2-(4-methylpiperazin-1-yl)ethoxy)-5-((tetrahydro-2H-pyran-4-yl)oxy)quinazolin-4-yl)oxy)benzamide]: over 10 µM, 1 to 10 µM and over 10 µM.
The matching figures for `CN1CCN(CCOc2cc(OC3CCOCC3)c3c(Oc4cccc(CC(=O)NCc5ccccc5)c4)ncnc3c2)CC1` [Example 2.33, N-benzyl-2-(3-((7-(2-(4-methylpiperazin-1-yl)ethoxy)-5-((tetrahydro-2H-pyran-4-yl)oxy)quinazolin-4-yl)oxy)phenyl)acetamide]: 0.5 to 1 µM, 1 to 10 µM and over 10 µM.
Regarding `COc1cc(OCC2CCN(C)CC2)cc2ncnc(Oc3ccc(F)cc3Cl)c12` [Example 2.34, 4-(2-chloro-4-fluorophenoxy)-5-methoxy-7-((1-methylpiperidin-4-yl)methoxy)quinazoline], the IC50 on human Tyro3 was under 0.5 µM; at human Axl, 1 to 10 µM; on human Mer it was 0.5 to 1 µM.
Regarding `Cc1cc(Nc2ncnc3cc(OCCCN4CCOCC4)cc(OC4CCOCC4)c23)on1` [Example 2.35, 3-methyl-N-(7-(3-morpholinopropoxy)-5-((tetrahydro-2H-pyran-4-yl)oxy)quinazolin-4-yl)isoxazol-5-amine], the IC50 at human Tyro3 is over 10 µM; at human Axl, 1 to 10 µM; on human Mer, 1 to 10 µM.
Turning to `Cc1nnc(Nc2ncnc3cc(OCC4CCN(C)CC4)cc(OC4CCOCC4)c23)s1` [Example 2.36, 5-methyl-N-(7-((1-methylpiperidin-4-yl)methoxy)-5-((tetrahydro-2H-pyran-4-yl)oxy)quinazolin-4-yl)-1,3,4-thiadiazol-2-amine], the IC50 on human Tyro3 is over 10 µM; at human Axl it was 1 to 10 µM; at human Mer, 1 to 10 µM.
As for `CN1CCC(COc2cc(OC3CCOCC3)c3c(Nc4nnc(C(F)(F)F)s4)ncnc3c2)CC1` [Example 2.37, N-(7-((1-methylpiperidin-4-yl)methoxy)-5-((tetrahydro-2H-pyran-4-yl)oxy)quinazolin-4-yl)-5-(trifluoromethyl)-1,3,4-thiadiazol-2-amine], the IC50 at human Tyro3 was over 10 µM; at human Axl, 1 to 10 µM; on human Mer, over 10 µM.
As to `CN1CCC(COc2cc(OC3CCOCC3)c3c(Nc4nncs4)ncnc3c2)CC1` [Example 2.38, N-(7-((1-methylpiperidin-4-yl)methoxy)-5-((tetrahydro-2H-pyran-4-yl)oxy)quinazolin-4-yl)-1,3,4-thiadiazol-2-amine], the IC50 is 1 to 10 µM at human Tyro3, under 0.5 µM at human Axl and 0.5 to 1 µM at human Mer.
Consider `CN1CCC(COc2cc(OC3CCOCC3)c3c(Nc4nccs4)ncnc3c2)CC1` [Example 2.39, N-(7-((1-methylpiperidin-4-yl)methoxy)-5-((tetrahydro-2H-pyran-4-yl)oxy)quinazolin-4-yl)thiazol-2-amine], for which the IC50 is 0.5 to 1 µM at human Tyro3, under 0.5 µM at human Axl and under 0.5 µM on human Mer.
Regarding `Cc1cc(Nc2ncnc3cc(OCC4CCN(C)CC4)cc(OC4CCOCC4)c23)on1` [Example 2.40, 3-methyl-N-(7-((1-methylpiperidin-4-yl)methoxy)-5-((tetrahydro-2H-pyran-4-yl)oxy)quinazolin-4-yl)isoxazol-5-amine], the IC50 at human Tyro3 was 1 to 10 µM; at human Axl it was under 0.5 µM; at human Mer, 1 to 10 µM.
Consider `COCCN1CCN(c2cc(OC3CCOCC3)c3c(Nc4nc(C(F)(F)F)cs4)ncnc3c2)CC1` [Example 2.41, N-(7-(4-(2-methoxyethyl)piperazin-1-yl)-5-((tetrahydro-2H-pyran-4-yl)oxy)quinazolin-4-yl)-4-(trifluoromethyl)thiazol-2-amine], for which the IC50 at human Tyro3 is over 10 µM; at human Axl it was 1 to 10 µM; at human Mer, over 10 µM.
`Cc1csc(Nc2ncnc3cc(OCC4CCN(C)CC4)cc(OC4CCOCC4)c23)n1` [Example 2.42, 4-methyl-N-(7-((1-methylpiperidin-4-yl)methoxy)-5-((tetrahydro-2H-pyran-4-yl)oxy)quinazolin-4-yl)thiazol-2-amine]: the IC50 is 1 to 10 µM on human Tyro3, under 0.5 µM at human Axl and under 0.5 µM on human Mer.
With `Cc1cnc(Nc2ncnc3cc(OCC4CCN(C)CC4)cc(OC4CCOCC4)c23)s1` [Example 2.43, 5-methyl-N-(7-((1-methylpiperidin-4-yl)methoxy)-5-((tetrahydro-2H-pyran-4-yl)oxy)quinazolin-4-yl)thiazol-2-amine], the IC50 is 1 to 10 µM on human Tyro3, under 0.5 µM on human Axl and under 0.5 µM at human Mer.
